Reference: US20180085356A1, “METHOD OF TREATING DISEASE CHARACTERISED BY PROTEIN AGGREGATE DEPOSITION IN NEURONAL CELLS” (CHRONOS THERAPEUTICS LIMITED, priority 2013, published 2018)

Settings: in vivo
Description: Pharmacokinetic analysis was carried out by the Applicant. […] Therefore, even accounting for species differences in pharmacokinetics, preferred oral doses of tacrolimus in humans for the treatment of ALS would be expected to be below 1.3 mg/day and are likely to be below 0.55 mg/day.
Based on pharmacokinetic analysis, an oral tacrolimus dose of 2 mg/kg/day in the mouse is believed to correspond to a human oral dose of about 0.33-0.44 mg/day for a 70 kg person.

C=CC[C@@H]1/C=C(\C)C[C@H](C)C[C@H](OC)[C@H]2O[C@@](O)(C(=O)C(=O)N3CCCC[C@H]3C(=O)O[C@H](/C(C)=C/[C@@H]3CC[C@@H](O)[C@H](OC)C3)[C@H](C)[C@@H](O)CC1=O)[C@H](C)C[C@@H]2OC [tacrolimus, Tacrolimus]
human oral dose corresponding to oral dose of 2 mg/kg/day in the mouse: 0.44-0.33
